Drawing on ChEMBL document CHEMBL1126493, “Conformationally constrained analogues of diacylglycerol (DAG). 4. Interaction of -alkylidene--lactones with protein kinase C (PK-C)” (Bioorg Med Chem Lett, 1993), this text covers Ki for two compounds.

Structures are written as SMILES.

Test [1] has as its target Protein kinase C, PKC; classical/novel. The test is described as follows: Inhibition of [20-3H]phorbol-12,13-dibutyrate (PDBU) binding to protein kinase C. It is filed as protein assay.
Test [2] has as its target Protein kinase C alpha type (Homo sapiens, UniProt P17252). Description: Inhibition of [20-3H]phorbol-12,13-dibutyrate (PDBU) binding to protein kinase C (alpha).

As usually defined, the Ki is a dissociation constant, usually derived from enzyme kinetics or from competition with a known ligand. Take `CCCCCCCCCCCCCC[C@H]1C(=O)O[C@@H](CO)[C@@H]1OC(C)=O`: the Ki in test [1] was 600 nM; in test [2], 500 nM. `CCCCCCCCCCCCCC[C@@H]1C(=O)O[C@@H](CO)[C@@H]1OC(C)=O`: in test [2], the inhibitory constant (Ki) is 600 nM.
